Test results as given in ChEMBL document CHEMBL4507273 (2021).

Tests used:
[1] = biological target: 5-hydroxytryptamine receptor 7 (Homo sapiens, UniProt P34969); assay: GPCRScan assay: inhibition of 5-HT7A; parameters: radioligand conc. used [nm] 5.0 – 6.0, parental cells Stable HEK
[2] = biological target: T1, Alpha-2C adrenergic receptor (Homo sapiens, UniProt P18825); assay: GPCRScan assay: inhibition of Alpha2C; parameters: radioligand conc. used [nm] 0.5 – 1.0, parental cells stable MDCK
T1 sequence (P18825 whole entry): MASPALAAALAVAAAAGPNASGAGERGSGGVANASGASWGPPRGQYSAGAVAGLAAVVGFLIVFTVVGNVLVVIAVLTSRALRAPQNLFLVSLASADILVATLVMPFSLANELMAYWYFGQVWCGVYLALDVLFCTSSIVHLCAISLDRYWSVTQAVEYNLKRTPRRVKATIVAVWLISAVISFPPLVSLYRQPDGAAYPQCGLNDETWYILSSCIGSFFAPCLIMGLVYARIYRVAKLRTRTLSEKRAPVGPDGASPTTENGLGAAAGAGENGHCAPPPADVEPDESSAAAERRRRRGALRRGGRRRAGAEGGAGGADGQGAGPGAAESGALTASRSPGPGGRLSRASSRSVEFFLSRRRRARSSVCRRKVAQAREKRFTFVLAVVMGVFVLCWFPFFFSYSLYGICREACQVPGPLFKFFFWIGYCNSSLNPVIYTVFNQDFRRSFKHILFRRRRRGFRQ

[3] = biological target: Atypical kinase COQ8B, mitochondrial (Homo sapiens) (UniProt Q96D53); conditions: Compound concentration 1000.0 nM
[4] = biological target: RAC-alpha serine/threonine-protein kinase (Homo sapiens) (UniProt P31749); conditions: Compound concentration 1000.0 nM
[5] = biological target: Mitogen-activated protein kinase kinase kinase 5 (Homo sapiens) (UniProt Q99683); conditions: Compound concentration 1000.0 nM
[6] = biological target: Tyrosine-protein kinase Blk (Homo sapiens) (UniProt P51451); conditions: Compound concentration 1000.0 nM
[7] = biological target: Cyclin-dependent kinase 3 (Homo sapiens) (UniProt Q00526); conditions: Compound concentration 1000.0 nM
Sequence of Cyclin-dependent kinase 3 (Homo sapiens) (Q00526 whole entry, looked up): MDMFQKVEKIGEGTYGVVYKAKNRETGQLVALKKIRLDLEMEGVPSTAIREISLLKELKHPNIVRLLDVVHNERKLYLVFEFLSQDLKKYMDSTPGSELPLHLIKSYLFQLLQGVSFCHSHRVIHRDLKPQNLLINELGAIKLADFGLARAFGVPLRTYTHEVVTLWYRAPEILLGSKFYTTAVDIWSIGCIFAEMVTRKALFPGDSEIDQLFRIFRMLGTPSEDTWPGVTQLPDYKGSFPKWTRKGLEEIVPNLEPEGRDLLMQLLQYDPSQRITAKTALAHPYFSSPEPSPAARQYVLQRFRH

[8] = biological target: Cyclin-dependent kinase 4 (Homo sapiens) (UniProt P11802); conditions: Compound concentration 1000.0 nM
[9] = biological target: Ephrin type-A receptor 8 (Homo sapiens) (UniProt P29322); conditions: Compound concentration 1000.0 nM
[10] = biological target: Mitogen-activated protein kinase 3 (Homo sapiens) (UniProt P27361); conditions: Compound concentration 1000.0 nM
[11] = biological target: Receptor-type tyrosine-protein kinase FLT3 (Homo sapiens) (UniProt P36888); conditions: Compound concentration 1000.0 nM
Sequence of Receptor-type tyrosine-protein kinase FLT3 (Homo sapiens) (P36888 whole entry): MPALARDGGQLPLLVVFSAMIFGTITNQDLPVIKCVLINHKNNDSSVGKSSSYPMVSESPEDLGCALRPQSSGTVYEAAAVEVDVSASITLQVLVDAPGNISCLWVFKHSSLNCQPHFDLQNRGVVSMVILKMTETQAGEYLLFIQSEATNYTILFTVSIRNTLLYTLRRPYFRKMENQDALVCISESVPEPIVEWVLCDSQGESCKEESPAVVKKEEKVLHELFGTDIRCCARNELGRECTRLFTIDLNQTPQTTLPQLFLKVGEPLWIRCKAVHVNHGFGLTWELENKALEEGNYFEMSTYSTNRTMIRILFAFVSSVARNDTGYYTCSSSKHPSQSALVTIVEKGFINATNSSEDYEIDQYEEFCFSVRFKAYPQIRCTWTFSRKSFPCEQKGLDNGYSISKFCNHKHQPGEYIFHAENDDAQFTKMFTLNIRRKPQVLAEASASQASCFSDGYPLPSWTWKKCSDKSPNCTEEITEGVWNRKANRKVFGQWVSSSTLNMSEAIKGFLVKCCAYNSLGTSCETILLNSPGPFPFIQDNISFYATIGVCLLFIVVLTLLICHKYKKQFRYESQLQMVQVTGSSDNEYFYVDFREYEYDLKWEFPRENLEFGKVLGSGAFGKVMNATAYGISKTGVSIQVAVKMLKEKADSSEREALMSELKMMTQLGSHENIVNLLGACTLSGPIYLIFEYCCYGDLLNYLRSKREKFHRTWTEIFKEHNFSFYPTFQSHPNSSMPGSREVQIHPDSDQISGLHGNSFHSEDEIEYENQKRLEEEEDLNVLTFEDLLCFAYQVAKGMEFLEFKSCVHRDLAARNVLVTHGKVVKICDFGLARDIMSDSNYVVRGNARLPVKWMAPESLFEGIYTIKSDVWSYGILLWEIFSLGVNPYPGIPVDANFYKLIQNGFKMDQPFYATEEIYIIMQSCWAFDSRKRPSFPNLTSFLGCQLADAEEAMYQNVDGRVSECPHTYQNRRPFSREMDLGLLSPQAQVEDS

[12] = biological target: Tyrosine-protein kinase FRK (Homo sapiens) (UniProt P42685); conditions: Compound concentration 1000.0 nM
[13] = biological target: Homeodomain-interacting protein kinase 3 (Homo sapiens) (UniProt Q9H422); conditions: Compound concentration 1000.0 nM
[14] = biological target: Serine/threonine-protein kinase ICK (Homo sapiens) (UniProt Q9UPZ9); conditions: Compound concentration 1000.0 nM
Sequence of Serine/threonine-protein kinase ICK (Homo sapiens) (Q9UPZ9 whole entry): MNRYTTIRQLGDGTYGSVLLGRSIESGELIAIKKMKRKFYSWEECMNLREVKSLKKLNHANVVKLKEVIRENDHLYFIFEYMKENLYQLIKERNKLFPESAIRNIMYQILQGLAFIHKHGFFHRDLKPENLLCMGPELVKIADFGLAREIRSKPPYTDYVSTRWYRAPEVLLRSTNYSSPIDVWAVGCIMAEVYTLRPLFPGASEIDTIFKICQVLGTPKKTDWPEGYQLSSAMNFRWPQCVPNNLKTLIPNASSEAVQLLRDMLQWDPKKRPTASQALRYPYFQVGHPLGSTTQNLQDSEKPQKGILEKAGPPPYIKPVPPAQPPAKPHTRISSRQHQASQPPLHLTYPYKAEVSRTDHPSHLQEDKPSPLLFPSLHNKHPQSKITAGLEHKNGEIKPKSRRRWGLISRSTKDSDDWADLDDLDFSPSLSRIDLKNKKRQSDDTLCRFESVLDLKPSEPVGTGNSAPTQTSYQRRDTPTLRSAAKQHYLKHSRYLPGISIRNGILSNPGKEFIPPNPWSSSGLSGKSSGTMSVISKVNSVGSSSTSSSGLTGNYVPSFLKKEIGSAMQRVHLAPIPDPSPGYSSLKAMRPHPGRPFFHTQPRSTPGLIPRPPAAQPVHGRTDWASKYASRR

[15] = biological target: Insulin-like growth factor 1 receptor (Homo sapiens) (UniProt P08069); conditions: Compound concentration 1000.0 nM
[16] = biological target: Interleukin-1 receptor-associated kinase 4 (Homo sapiens) (UniProt Q9NWZ3); conditions: Compound concentration 1000.0 nM
[17] = test system: Mast/stem cell growth factor receptor Kit (Homo sapiens), P10721 [L576P]; conditions: Compound concentration 1000.0 nM
[18] = biological target: Mitogen-activated protein kinase kinase kinase 3 (Homo sapiens) (UniProt Q99759); conditions: Compound concentration 1000.0 nM
[19] = biological target: Dual specificity mitogen-activated protein kinase kinase 3 (Homo sapiens) (UniProt P46734); conditions: Compound concentration 1000.0 nM
Sequence of Dual specificity mitogen-activated protein kinase kinase 3 (Homo sapiens) (P46734 whole entry): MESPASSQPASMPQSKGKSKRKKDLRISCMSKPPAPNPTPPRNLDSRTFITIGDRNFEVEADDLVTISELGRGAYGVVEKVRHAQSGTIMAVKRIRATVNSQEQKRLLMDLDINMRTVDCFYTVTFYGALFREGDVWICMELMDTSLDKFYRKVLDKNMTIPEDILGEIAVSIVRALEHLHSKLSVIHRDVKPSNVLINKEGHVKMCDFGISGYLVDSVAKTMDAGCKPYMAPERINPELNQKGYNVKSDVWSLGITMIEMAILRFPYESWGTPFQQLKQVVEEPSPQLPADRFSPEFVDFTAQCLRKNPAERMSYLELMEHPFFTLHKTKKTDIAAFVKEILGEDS

[20] = biological target: Dual specificity mitogen-activated protein kinase kinase 5 (Homo sapiens) (UniProt Q13163); conditions: Compound concentration 1000.0 nM
Sequence of Dual specificity mitogen-activated protein kinase kinase 5 (Homo sapiens) (Q13163 whole entry): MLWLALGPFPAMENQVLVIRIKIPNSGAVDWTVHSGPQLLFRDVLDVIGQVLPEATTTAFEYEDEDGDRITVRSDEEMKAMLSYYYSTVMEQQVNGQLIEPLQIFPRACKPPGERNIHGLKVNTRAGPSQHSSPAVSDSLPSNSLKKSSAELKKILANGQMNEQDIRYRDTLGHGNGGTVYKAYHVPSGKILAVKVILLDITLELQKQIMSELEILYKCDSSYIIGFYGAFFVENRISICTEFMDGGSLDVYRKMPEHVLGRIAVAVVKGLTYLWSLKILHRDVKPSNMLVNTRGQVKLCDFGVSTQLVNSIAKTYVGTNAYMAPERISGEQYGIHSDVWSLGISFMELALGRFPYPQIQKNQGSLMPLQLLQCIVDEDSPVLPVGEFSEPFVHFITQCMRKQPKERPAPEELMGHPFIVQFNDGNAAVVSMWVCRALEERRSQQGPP

[21] = biological target: Mitogen-activated protein kinase kinase kinase 9 (Homo sapiens) (UniProt P80192); conditions: Compound concentration 1000.0 nM
[22] = biological target: Serine/threonine-protein kinase Nek1 (Homo sapiens) (UniProt Q96PY6); conditions: Compound concentration 1000.0 nM
[23] = biological target: Mitogen-activated protein kinase kinase kinase 14 (Homo sapiens) (UniProt Q99558); conditions: Compound concentration 1000.0 nM
Sequence of Mitogen-activated protein kinase kinase kinase 14 (Homo sapiens) (Q99558 whole entry, looked up, canonical isoform): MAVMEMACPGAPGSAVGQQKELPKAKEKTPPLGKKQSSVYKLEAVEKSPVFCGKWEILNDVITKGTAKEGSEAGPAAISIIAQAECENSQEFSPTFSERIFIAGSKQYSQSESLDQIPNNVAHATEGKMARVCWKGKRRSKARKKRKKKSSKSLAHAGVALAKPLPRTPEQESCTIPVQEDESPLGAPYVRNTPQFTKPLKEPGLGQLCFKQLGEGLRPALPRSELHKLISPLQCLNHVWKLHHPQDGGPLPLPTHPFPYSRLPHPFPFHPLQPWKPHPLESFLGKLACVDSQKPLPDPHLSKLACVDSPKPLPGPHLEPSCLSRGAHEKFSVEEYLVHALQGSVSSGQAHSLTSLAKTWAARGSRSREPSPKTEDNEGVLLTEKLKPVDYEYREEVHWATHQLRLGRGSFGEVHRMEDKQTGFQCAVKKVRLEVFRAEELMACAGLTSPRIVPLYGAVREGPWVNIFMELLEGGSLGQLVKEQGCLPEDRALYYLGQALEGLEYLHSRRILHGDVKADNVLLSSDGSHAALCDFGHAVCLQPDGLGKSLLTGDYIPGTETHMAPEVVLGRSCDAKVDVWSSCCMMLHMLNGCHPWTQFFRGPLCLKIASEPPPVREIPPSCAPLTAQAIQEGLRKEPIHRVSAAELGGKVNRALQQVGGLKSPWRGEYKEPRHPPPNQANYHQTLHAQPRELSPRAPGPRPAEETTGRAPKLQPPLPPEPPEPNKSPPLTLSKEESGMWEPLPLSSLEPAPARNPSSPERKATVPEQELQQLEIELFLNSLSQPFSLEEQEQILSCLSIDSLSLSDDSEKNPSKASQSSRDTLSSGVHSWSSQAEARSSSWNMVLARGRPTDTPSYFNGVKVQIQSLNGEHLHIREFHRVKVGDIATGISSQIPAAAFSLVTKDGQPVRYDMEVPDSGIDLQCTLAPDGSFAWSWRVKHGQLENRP

[24] = biological target: Phosphatidylinositol 4,5-bisphosphate 3-kinase catalytic subunit alpha isoform (Homo sapiens) (UniProt P42336); conditions: Compound concentration 1000.0 nM
[25] = biological target: Phosphatidylinositol 4-kinase beta (Homo sapiens) (UniProt Q9UBF8); conditions: Compound concentration 1000.0 nM
Sequence of Phosphatidylinositol 4-kinase beta (Homo sapiens) (Q9UBF8 2-816 limits assumed): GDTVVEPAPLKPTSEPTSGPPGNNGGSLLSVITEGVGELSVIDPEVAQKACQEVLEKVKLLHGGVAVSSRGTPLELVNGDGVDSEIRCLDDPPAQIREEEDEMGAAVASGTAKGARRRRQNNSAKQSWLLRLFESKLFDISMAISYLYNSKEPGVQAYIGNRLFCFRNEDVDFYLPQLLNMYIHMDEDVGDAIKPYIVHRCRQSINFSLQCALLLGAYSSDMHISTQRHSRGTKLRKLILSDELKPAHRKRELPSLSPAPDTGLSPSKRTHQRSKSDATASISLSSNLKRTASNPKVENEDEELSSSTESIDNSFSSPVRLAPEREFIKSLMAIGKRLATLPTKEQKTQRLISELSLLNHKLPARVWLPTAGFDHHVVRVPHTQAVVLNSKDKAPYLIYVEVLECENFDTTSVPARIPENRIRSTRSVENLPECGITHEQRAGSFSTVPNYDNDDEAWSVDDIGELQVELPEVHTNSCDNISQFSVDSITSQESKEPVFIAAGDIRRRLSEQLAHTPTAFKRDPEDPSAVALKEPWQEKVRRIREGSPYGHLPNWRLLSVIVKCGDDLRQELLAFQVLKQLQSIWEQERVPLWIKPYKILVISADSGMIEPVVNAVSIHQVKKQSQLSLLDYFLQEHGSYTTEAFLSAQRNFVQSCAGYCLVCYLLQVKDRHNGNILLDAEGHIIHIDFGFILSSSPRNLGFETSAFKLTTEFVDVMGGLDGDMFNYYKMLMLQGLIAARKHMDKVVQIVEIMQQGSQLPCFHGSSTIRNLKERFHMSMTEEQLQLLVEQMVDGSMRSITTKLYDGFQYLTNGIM

[26] = biological target: Serine/threonine-protein kinase pim-3 (Homo sapiens) (UniProt Q86V86); conditions: Compound concentration 1000.0 nM
[27] = biological target: Serine/threonine-protein kinase N2 (Homo sapiens) (UniProt Q16513); conditions: Compound concentration 1000.0 nM
[28] = biological target: Protein kinase C delta type (Homo sapiens) (UniProt Q05655); conditions: Compound concentration 1000.0 nM
[29] = biological target: Serine/threonine-protein kinase RIO3 (Homo sapiens) (UniProt O14730); conditions: Compound concentration 1000.0 nM
[30] = biological target: Receptor-interacting serine/threonine-protein kinase 4 (Homo sapiens) (UniProt P57078); conditions: Compound concentration 1000.0 nM
[31] = biological target: Ribosomal protein S6 kinase alpha-1 (Homo sapiens) (UniProt Q15418); conditions: Compound concentration 1000.0 nM
[32] = biological target: Mitogen-activated protein kinase kinase kinase 7 (Homo sapiens) (UniProt O43318); conditions: Compound concentration 1000.0 nM
[33] = biological target: Serine/threonine-protein kinase TAO3 (Homo sapiens) (UniProt Q9H2K8); conditions: Compound concentration 1000.0 nM
[34] = biological target: Serine/threonine-protein kinase TBK1 (Homo sapiens) (UniProt Q9UHD2); conditions: Compound concentration 1000.0 nM
[35] = biological target: TGF-beta receptor type-2 (Homo sapiens) (UniProt P37173); conditions: Compound concentration 1000.0 nM
[36] = biological target: Serine/threonine-protein kinase WNK1 (Homo sapiens) (UniProt Q9H4A3); conditions: Compound concentration 1000.0 nM
[37] = biological target: Mitogen-activated protein kinase kinase kinase 20 (Homo sapiens) (UniProt Q9NYL2); conditions: Compound concentration 1000.0 nM
Histamine H4 receptor = Histamine H4 receptor (Homo sapiens, UniProt Q9H3N8); conditions: Compound concentration 10.0 uM
[38] = biological target: Sigma non-opioid intracellular receptor 1 (Homo sapiens) (UniProt Q99720); conditions: Compound concentration 10.0 uM

Sequence of 5-hydroxytryptamine receptor 7 (P34969 whole entry): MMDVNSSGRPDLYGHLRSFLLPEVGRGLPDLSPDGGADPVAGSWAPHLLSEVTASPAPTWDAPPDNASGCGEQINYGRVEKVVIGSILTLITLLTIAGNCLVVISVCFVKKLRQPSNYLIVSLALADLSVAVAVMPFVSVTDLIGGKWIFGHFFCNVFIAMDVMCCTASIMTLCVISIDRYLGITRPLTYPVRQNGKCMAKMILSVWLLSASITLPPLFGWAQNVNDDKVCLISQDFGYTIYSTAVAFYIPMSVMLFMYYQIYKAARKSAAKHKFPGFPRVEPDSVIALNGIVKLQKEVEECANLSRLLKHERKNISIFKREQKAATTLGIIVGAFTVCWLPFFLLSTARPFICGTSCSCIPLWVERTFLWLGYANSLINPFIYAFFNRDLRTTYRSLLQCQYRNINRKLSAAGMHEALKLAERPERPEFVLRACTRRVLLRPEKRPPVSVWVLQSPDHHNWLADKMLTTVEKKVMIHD

CNCc1ccccc1-c1csc([C@H](C)Nc2nc(C)nc3cc(OC)c(OC)cc23)c1 [BAY-294]
Ki ([1]; read-out: Ki): 700 nM | Ki ([2]; read-out: Ki): 95.2 nM | Ki ([2]; read-out: pKi (converted)): 91.2 nM | residual activity [3]: 93% | residual activity [4]: 100% | residual activity [5]: 100% | residual activity [6]: 94% | residual activity [7]: 100% | residual activity [8]: 100% | residual activity [9]: 100% | residual activity [10]: 100% | residual activity [11]: 100% | residual activity [12]: 100% | residual activity [13]: 97% | residual activity [14]: 86% | residual activity [15]: 100% | residual activity [16]: 89% | residual activity [17]: 100% | residual activity [18]: 87% | residual activity [19]: 98% | residual activity [20]: 87% | residual activity [21]: 100% | residual activity [22]: 100% | residual activity [23]: 100% | residual activity [24]: 71% | residual activity [25]: 74% | residual activity [26]: 100% | residual activity [27]: 90% | residual activity [28]: 100% | residual activity [29]: 100% | residual activity [30]: 75% | residual activity [31]: 100% | residual activity [32]: 75% | residual activity [33]: 75% | residual activity [34]: 100% | residual activity [35]: 97% | residual activity [36]: 100% | residual activity [37]: 100% | inhibition (Histamine H4 receptor): 67% | inhibition [38]: 49%

CNCc1ccccc1-c1csc([C@@H](C)Nc2nc(C)nc3cc(OC)c(OC)cc23)c1 [BAY-293]
Ki ([1]; read-out: Ki): 1730 nM | Ki ([1]; read-out: pKi (converted)): 1700 nM | Ki ([2]; read-out: Ki): 131 nM | Ki ([2]; read-out: pKi (converted)): 130 nM | residual activity [3]: 65% | residual activity [4]: 100% | residual activity [5]: 91% | residual activity [6]: 91% | residual activity [7]: 100% | residual activity [8]: 100% | residual activity [9]: 100% | residual activity [10]: 94% | residual activity [11]: 97% | residual activity [12]: 100% | residual activity [13]: 83% | residual activity [14]: 82% | residual activity [15]: 100% | residual activity [16]: 76% | residual activity [17]: 92% | residual activity [18]: 83% | residual activity [19]: 80% | residual activity [20]: 91% | residual activity [21]: 98% | residual activity [22]: 91% | residual activity [23]: 93% | residual activity [24]: 69% | residual activity [25]: 82% | residual activity [26]: 83% | residual activity [27]: 89% | residual activity [28]: 98% | residual activity [29]: 94% | residual activity [30]: 91% | residual activity [31]: 100% | residual activity [32]: 70% | residual activity [33]: 83% | residual activity [34]: 100% | residual activity [35]: 91% | residual activity [36]: 88% | residual activity [37]: 75% | inhibition (Histamine H4 receptor): 42.1% | inhibition [38]: 22.6%
